SMILES,melting point,boiling point,log10 vapour pressure (mmHg),log10 Henry constant (atm·m³/mol),log10 Koa,ready biodegradability,log10 Koc (L/kg)
CC[N+](CC)(CCNC(=O)C(=O)NCC[N+](CC)(CC)Cc1ccccc1Cl)Cc1ccccc1Cl.[Cl-].[Cl-],198 °C,,,,,,
C=COCCCC,-92 °C,94 °C,1.69,,,,
CCCCCC=O,-56 °C,131 °C,1.05,-3.67,4.41,readily biodegradable,
C=CC[Si](Cl)(Cl)CC=C,,,0.445,,,,
CCO[Si](OCC)(OCC)OCC,-82.5 °C,169 °C,0.275,,,,
O=[N+]([O-])CCc1ccccc1,-23 °C,250 °C,,,,,
CCN(C)c1ccccc1,,204 °C,,,,,
O=C(O)c1ccccc1SSc1ccccc1C(=O)O,288 °C,,,,,,
Ic1ccc(I)cc1,132 °C,285 °C,,,,,
Oc1ccc2cc(O)ccc2c1,220 °C,,,,,,
CCCN(CCC)c1c([N+](=O)[O-])cc(C(F)(F)F)cc1[N+](=O)[O-],49 °C,,-4.34,-3.99,,not readily biodegradable,4.2
Cc1cccc2c(C)cccc12,82 °C,265 °C,-2.3,-3.46,,,
S=C1NCCS1,106 °C,,,,,,
O=C(NCO)NCO,126 °C,,,,,,
COc1cccc(OC)c1,-52 °C,218 °C,,,,readily biodegradable,
C=CCOCC,,67.6 °C,2.18,,,,
CN(C)C(=S)Sc1ccc([N+](=O)[O-])cc1[N+](=O)[O-],152 °C,,,,,,
C=CCSC#N,,161 °C,,,,,
CCc1ccsc1,-89.1 °C,136 °C,,,,,
CN1C(=O)C(=NNC(N)=S)c2ccccc21,245 °C,,,,,,
N#CCc1ccccc1Br,1 °C,,,,,,
CCCCCCCCN(C)C,-57 °C,191 °C,,,,,

SMILES,melting point,boiling point,log10 vapour pressure (mmHg),log10 Henry constant (atm·m³/mol),log10 Koa,ready biodegradability,log10 Koc (L/kg)
CCC(C#N)CC#N (configuration not stated),-41 °C,264 °C,-1.72,,,,
C=CCN(CC=C)C(=O)C(Cl)Cl,5.5 °C,,-2.22,,,,1.6
CCCC(Cl)Cl,,114 °C,1.36,,,,
CN(C)Cc1c[nH]c2ccccc12,138 °C,,,,,,
O=S(=O)(Cl)C(F)(F)F,,30.5 °C,,,,,
O=C(c1ccc(Br)cc1)c1ccc(Br)cc1,177 °C,395 °C,,,,,
CCNc1nc(O)nc(NCC)n1,,,,,,not readily biodegradable,
NC[C@H]1CCCO1,,153 °C,,,,,
CC(C)CCOC(=O)C(C)O (configuration not stated),,202 °C,,,,,
O=Cc1cccc(Oc2ccccc2)c1,,,,,,not readily biodegradable,
CC1(C)C2CCC1(C)C(O)C2 (configuration not stated),,,,,,readily biodegradable,
CCOC(=O)C(F)(F)F,,61 °C,,,,,
CCCCCCCCC(=O)OC,,214 °C,,,,,
CN(N=O)c1ccc(N=O)cc1,101 °C,,,,,,
N#Cc1c(F)c(F)c(F)c(F)c1F,2.4 °C,162 °C,,,,,
CC(C)(C)C(=O)C1C(=O)c2ccccc2C1=O,109 °C,,,,,,
C1=CCCC=CCCC=CCC1,-9.25 °C,240 °C,,,,not readily biodegradable,
COC(=O)CC(C)C,,116 °C,1.15,,,,
C=CCOC(=O)CC,,124 °C,,,,,
N=C(N)c1ccc(Oc2ccc(C(=N)N)cc2)cc1,216 °C,,,,,,
C#CCI,,115 °C,,,,,
CCOP(=O)(OCC)Oc1ccc([N+](=O)[O-])cc1,300 °C,,-5.96,,,,

SMILES,melting point,boiling point,log10 vapour pressure (mmHg),log10 Henry constant (atm·m³/mol),log10 Koa,ready biodegradability,log10 Koc (L/kg)
c1cocn1,,69.5 °C,2.12,,,,
COS(=O)(=O)[O-].C[N+]1(C)CCN(CC(O)(c2ccccc2)C2CCCCC2)CC1 (configuration not stated),205 °C,,,,,,
O=C(O)C(Br)(Br)Br,132 °C,,,-8.48,,,
NNS(=O)(=O)c1ccccc1,102 °C,,,,,,
Nc1cccc2cnccc12,128 °C,,,,,,
CN(C)c1ccc(C(=O)O)cc1,242 °C,,,,,,
Cl[Si](Cl)(Cl)c1ccccc1,,201 °C,-0.371,,,,
O=C(O)c1cnc[nH]1,,294 °C,,,,,
CCc1ccc(C)nc1,-70.9 °C,178 °C,0.155,,,,
CC(C)OC(=O)c1cc(-c2nn(C)c(C(F)(F)F)c2Br)c(F)cc1Cl,80 °C,,-7.15,,,,
O=CN(c1ccccc1)c1ccccc1,73.5 °C,338 °C,,,,,
CC(C)NCC(O)c1ccc([N+](=O)[O-])cc1 (configuration not stated),98 °C,,,,,,
O=C(O)CCCCCCCCCCCCC(=O)O,127 °C,,,,,readily biodegradable,
Nc1nc(Cl)cc(Cl)n1,220 °C,,,,,,
COCC(=NOCC(=O)OC)c1cc(Oc2ccc(C(F)(F)F)cc2Cl)ccc1[N+](=O)[O-],58 °C,,,,,,
CN(CCCC(=O)c1cccnc1)N=O,64 °C,,,,,,
CC(=O)N[C@@H](CS)C(=O)O,110 °C,,,,,,
Cc1cc(N)cc(C)n1,192 °C,246 °C,,,,,
Clc1ccc(-c2c(Cl)ccc(Cl)c2Cl)cc1,,,,-3.85,8.41,,
O=C(O)CC(O)C(=O)O (configuration not stated),131 °C,,-7.48,,,readily biodegradable,
CC(=O)N1CCN(c2ccc(OC[C@H]3CO[C@](Cn4ccnc4)(c4ccc(Cl)cc4Cl)O3)cc2)CC1,146 °C,,,,,,
CC(C)[C@H]1CC[C@H](C)C[C@@H]1OCC(=O)O,54 °C,,,,,,
